How the values were obtained:
[1] = test system: SW620 cells; test: Resazurin cytotoxic assay, metastatic SW620; format: cell-based, human; conditions: 48 h, mean ± SD
Method: (§1) CRL1790, SW480 and SW620 cell lines were purchased from American Type Culture Collection (ATCC). Cells were cultured at 37 °C with 5% CO2 atmosphere in medium supplemented with 10% fetal bovine serum (10270106, Gibco, Waltham, MA, USA), 10 mg/mL penicillin, 10 mg/mL streptomycin, […] amphotericin, and 0.03% L-Glutamine as recommended by the ATCC. MEM medium (M5650, Merck, Darmstadt, Germany) was used for non-tumoral CRL1790, and RPMI 1640 medium (L0501-500, Biowest, Nuaillé, France) was used for both tumoral SW480 and SW620 cell lines.
(§2) Cytotoxic activity was screened using Resazurin Fluorimetric Assay (R7017, Merck, Darmstadt, Germany), according to the manufacturer’s protocol. Cells seeded into 96-well plates (8 × 10^3 cells/well) were treated for 48 h with phenolic compounds at increasing concentrations from 2 × 10^−5 µM to 100 µM. Negative control with vehicle DMSO was included. Fluorescence was determined using Nanoquant Infinite M200 Pro multi-plate reader (Tecan). Half-maximal inhibitory concentration (IC50) values were determined in triplicate by non-linear regression with Graphpad (Prism).
(§3) Natural products such as phenolic compounds have recently attracted significant attention for their anticancer properties. […] We used three different cell lines to mimic CRC progression. In particular, CRL1790 are colon epithelial cells simulating the non-tumoral stage. In addition, SW480 is Dukes’ type B colorectal adenocarcinoma cells representing the primary tumor. Finally, SW620 constitutes Dukes’ type C colorectal adenocarcinoma derived from metastasic site cells to mimic the most aggressive metastasic stage. […] Cytotoxic potency upon 48 h treatment with phenolic compounds was examined by determination of half-maximal inhibitory concentration (IC50) values using the Resazurin method (Table 1). Only GA inhibited cell growth in SW480 and SW620 at clinically-relevant concentrations (IC50 values lower than 30 µM).

[2] = test system: CMYC (FID oligonucleotide) (DNA, G4) GGGGCGCTTATGGGGAGGGTGGGGAGGGTGGGGAAGGTGGGGAGGAG; test: fluorescent intercalator displacement (TOPRO3); conditions: oligonucleotide prefolded in 100 mM KCl, 10 mM potassium phosphate; TOPRO3 displaced; 10 µM GA, single concentration; prefolding buffer pH 7.0
[3] = molecular target: CMYC G4; test: UV-vis titration, CMYC G4; format: binding; conditions: UV-vis titration at 265 nm, CMYC G4, 25 °C, pH 7.0; read-out: dissociation constant (Kd)
Method: (§4) G4-oligonucleotides listed in Supplementary Table S3 were purchased from Integrated DNA Technologies (Clareville, IA, USA). All of them were dissolved in G4s buffer (10 mM potassium phosphate, 100 mM potassium chloride at pH 7.0), heated at 95 °C for 10 min, slowly cooled to RT, and stored at 4 °C.
UV-vis absorption spectra were registered in a Varian Cary 50 UV-vis spectrophotometer at 25 °C. Concentration of the prefolded G4 DNA was 5 μM in G4s buffer (10 mM potassium phosphate buffer containing 100 mM potassium chloride at pH 7.0). Once the DNA was placed in the cuvette, a concentrated solution of GA (1 mM) was routinely added, 1 μL each time, with a Hamilton syringe and subsequently mixed with a pipette. After each addition of the GA solution, a UV-vis spectrum was recorded. In total, 10 μL of GA solution were added, with a final ratio of 1:20 G4 DNA:GA. For the blank, the same experiment with the successive additions was repeated, beginning just with buffer in the cuvette. […] Dissociation constants (Kd) were evaluated at 265 nm using the following equation:(1) A=Am+(Aml-Am)×(M+L+Kd)−(M+L+Kd)^2−4×M×L/2×M where A is the absorbance signal, Am is the signal of DNA in absence of the ligand, Aml is the signal of DNA in presence of the ligand, M is the total concentration of DNA, L is the total concentration of ligand, and Kd is the dissociation constant.

[4] = test system: CMYC G4; test: TOPRO3 fluorescent intercalator displacement (FID) assay, CMYC G4; format: binding; conditions: GA 10 µM, relative to GA-free control, CMYC promoter G4
Method: as §4
We used TOPRO3 (T3605, Thermo Scientific, MA, USA) as a fluorescent intercalator for FID assays. In particular, […] TOPRO3 was incubated with […] prefolded G4s and exposed to 10 µM GA in 96-well plates. TOPRO3 was excited at 642 nm, and emission profile was monitored between 650–800 nm with Infinite M200 Plate Reader (Tecan). Fluorescence values were calculated as follows: %Fluorescence = A/B × 100; where (A) is the fluorescence value in presence of GA, and (B) corresponds to the fluorescence value in GA-free controls. All assays were conducted in triplicate. The G4-oligonucleotides used in the current study are listed in Supplementary Table S3.

[5] = test system: 5′ETS (DNA, G4) GGGGGGCGGGTGGTTGGG; test: circular dichroism; conditions: 100 mM KCl, 10 mM potassium phosphate; pH 7.0, 25 °C; 10 µM DNA, 100 µM GA; positive band decreased, no induced CD
[6] = test system: SW480 cells; test: Resazurin cytotoxic assay, tumoral SW480; format: cell-based, human; conditions: SW480 primary tumor cells, mean ± SD
Method: as §1, §2, §3

[7] = test system: 5′ETS G4; test: PCR-stop assay, 5′ETS G4; format: biochemical; conditions: 5′ETS G4 sequence, GA 0-100 µM

O=C(O)c1cc(O)c(O)c(O)c1 [Gallic acid, 3,4,5-trihydroxybenzoic acid]
IC50 [1]: 11.8 ± 1.54 µM
IC50 ([1]; listed as GA): < 30 µM
%Fluorescence [2]: 84.3%
Kd [3]: 113 µM
TOPRO3 fluorescence percentage [4]: 84.3%
binding [5]: yes
IC50 ([6]; Homo sapiens, SW480, 48 h): < 30 µM
IC50 ([6]; 48 h): 22.4 ± 2.12 µM
concentration inhibiting accumulation of amplified products [7]: 100 µM
